Measurements taken from PMC10518257 (Nature Cancer, 2023).
“And” between values parts separate entries of the source, which are not always exact repeats. Equal values may be shown once.

Tests used:
[1] = Transcellular transport study, apparent permeability; details: pig, LLC-PK1
[2] = system: ECLC5 luciferase cells implanted intracranially; assay: Intracranial efficacy study; format: in vivo, NSG mice; details: for Luminescence Data: Fig. 8e ECLC5 intracranial, 50 mg/kg BID, individual animals
[3] = system: LUAD-0002AS1 cells; assay: Growth inhibition (alamarBlue, 96 h); format: cell-based, human; details: for raw viability signal (Source Data Fig. 3b-c): LUAD-0002AS1, replicate sets
[4] = system: Ba/F3 KIF5B–RET^G810R allograft tumors; assay: Subcutaneous allograft efficacy study; format: in vivo, BALB/c nude mice; details: in mm³ (unit assumed);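 further: mean tumor volume per dosing group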
[5] = system: LUAD-0077AS1 PDX; assay: PDX efficacy study; format: in vivo, NSG mice; set-up: Tumor volume: unit not given here; details: for Area Under Curve Mean: Fig. 6b LUAD-0077AS1 tumor growth; for Change in tumor volume (block without heading, Fig. 6b) / Tumor volume: LUAD-0077AS1, individual animals

Compound: COCc1ccc(NC(=O)c2c(C#CCN3CCOCC3)n(C3(C)CC3)c3ncnc(N)c23)cc1 [Vepafestinib, 4-amino-N-[4-(methoxymethyl)phenyl]-7-(1-methylcyclopropyl)-6-[3-(morpholin-4-yl)prop-1-yn-1-yl]-7H-pyrrolo[2,3-d]pyrimidine-5-carboxamide]
- Papp at 3 h, 1 μM [1]: 24 ×10⁻⁶ cm/s
- survival time ([2]; 50 mg per kg BID, all animals alive): > 139 d of treatment
- Luminescence Data ([2]; treatment day 0 (=1)): 1
- Luminescence Data ([2]; treatment day 5, day 0 = 1, 50 mg/kg): 0.4116 and 0.5677 and 0.6168 and 0.1116 and 0.9191 and 0.3141
- Luminescence Data ([2]; treatment day 12, day 0 = 1, 50 mg/kg): 0.3041 and 0.6223 and 0.3951 and 0.05187 and 0.856 and 0.4174
- Luminescence Data ([2]; treatment day 18, day 0 = 1, 50 mg/kg): 0.3959 and 0.7406 and 0.6024 and 0.03931 and 0.9545 and 0.2802
- Luminescence Data ([2]; treatment day 26, day 0 = 1, 50 mg/kg): 0.3977 and 0.5749 and 0.4469 and 0.01537 and 0.7719 and 0.2517
- Luminescence Data ([2]; treatment day 33, day 0 = 1, 50 mg/kg): 0.4164 and 0.7522 and 0.6219 and 0.01856 and 1.136 and 0.285
- Luminescence Data ([2]; treatment day 40, day 0 = 1, 50 mg/kg): 0.3201 and 0.5375 and 0.4135 and 0.01963 and 0.792 and 0.1799
- Luminescence Data ([2]; treatment day 46, day 0 = 1, 50 mg/kg): 0.3305 and 0.5368 and 0.3264 and 0.008566 and 0.9694 and 0.2044
- Luminescence Data ([2]; treatment day 55, day 0 = 1, 50 mg/kg): 0.516 and 0.834 and 0.6149 and 0.01696 and 1.167 and 0.3646
- Luminescence Data ([2]; treatment day 61, day 0 = 1, 50 mg/kg): 0.3872 and 0.6582 and 0.5284 and 0.01449 and 1.158 and 0.246
- Luminescence Data ([2]; treatment day 68, day 0 = 1, 50 mg/kg): 0.3804 and 0.71 and 0.4932 and 0.01469 and 1.521 and 0.2588
- Luminescence Data ([2]; treatment day 75, day 0 = 1, 50 mg/kg): 0.2695 and 0.603 and 0.5415 and 0.02346 and 1.537 and 0.2239
- Luminescence Data ([2]; treatment day 82, day 0 = 1, 50 mg/kg): 0.477 and 0.7647 and 0.421 and 0.02545 and 2.278 and 0.2761
- Luminescence Data ([2]; treatment day 89, day 0 = 1, 50 mg/kg): 0.4292 and 0.858 and 0.6342 and 0.04079 and 3.665 and 0.3289
- Luminescence Data ([2]; treatment day 96, day 0 = 1, 50 mg/kg): 0.3189 and 0.6963 and 0.5402 and 0.01338 and 5.016 and 0.1926
- Luminescence Data ([2]; treatment day 103, day 0 = 1, 50 mg/kg): 0.4201 and 0.6542 and 0.7489 and 0.02359 and 6.915 and 0.2847
- Luminescence Data ([2]; treatment day 110, day 0 = 1, 50 mg/kg): 0.2991 and 0.6305 and 0.5409 and 0.02851
- IC50 ([3]; Homo sapiens, 96 h, read-out: IC50 for Inhibition of Growth (95% CI)): 6 nM
- raw viability signal (Source Data Fig. 3b-c) ([3]; 0.01 nM): 16782.2 and 12668.5 and 13089
- raw viability signal (Source Data Fig. 3b-c) ([3]; 0.1 nM): 15237.2 and 13944 and 12774.4
- raw viability signal (Source Data Fig. 3b-c) ([3]; 1 nM): 14596.9 and 11925.3 and 12443
- raw viability signal (Source Data Fig. 3b-c) ([3]; 10 nM): 5820.38 and 4419.86 and 6264.61
- raw viability signal (Source Data Fig. 3b-c) ([3]; 100 nM): 2459.35 and 2506.15 and 3193.42
- raw viability signal (Source Data Fig. 3b-c) ([3]; 1000 nM): 1853.86 and 1731.17 and 3413.68
- raw viability signal (Source Data Fig. 3b-c) ([3]; 10000 nM): 1864.65 and 2510.44 and 3189.66
- Tumor Volume Mean ([4]; Fig. 7c Ba/F3-KIF5B::RET G810R, vepafestinib 10 mg/kg BID, day 1): 153.82
- Tumor Volume Mean ([4]; Fig. 7c Ba/F3-KIF5B::RET G810R, vepafestinib 10 mg/kg BID, day 4): 151.29
- Tumor Volume Mean ([4]; Fig. 7c Ba/F3-KIF5B::RET G810R, vepafestinib 10 mg/kg BID, day 8): 262.19
- Tumor Volume Mean ([4]; Fig. 7c Ba/F3-KIF5B::RET G810R, vepafestinib 10 mg/kg BID, day 11): 374.99
- Tumor Volume Mean ([4]; Fig. 7c Ba/F3-KIF5B::RET G810R, vepafestinib 10 mg/kg BID, day 15): 551.42
- Tumor Volume Mean ([4]; Fig. 7d Ba/F3-KIF5B::RET G810R, vepafestinib 50 mg/kg BID, day 1): 158.4
- Tumor Volume Mean ([4]; Fig. 7d Ba/F3-KIF5B::RET G810R, vepafestinib 50 mg/kg BID, day 4): 122.1
- Tumor Volume Mean ([4]; Fig. 7d Ba/F3-KIF5B::RET G810R, vepafestinib 50 mg/kg BID, day 8): 133.3
- Tumor Volume Mean ([4]; Fig. 7d Ba/F3-KIF5B::RET G810R, vepafestinib 50 mg/kg BID, day 11): 139.6
- Tumor Volume Mean ([4]; Fig. 7d Ba/F3-KIF5B::RET G810R, vepafestinib 50 mg/kg BID, day 15): 173.1
- Area Under Curve Mean ([5]; 50 mg/kg BID): 728.7
- Area Under Curve Mean ([5]; 100 mg/kg QD): 549
- Change in tumor volume (block without heading, Fig. 6b) ([5]; 50 mg/kg BID): 60.867 and 57.9883 and 49.0287 and 27.5983 and 23.1229
- Tumor volume ([5]; 50 mg/kg BID, treatment day 0): 82.36 (2×) and 88.7 and 83.97 and 85.5
- Tumor volume ([5]; 50 mg/kg BID, treatment day 4): 85.5 (3×) and 82.36 and 83.97
- Tumor volume ([5]; 50 mg/kg BID, treatment day 7): 80.89 (2×) and 82.36 (2×) and 85.5
- Tumor volume ([5]; 50 mg/kg BID, treatment day 11): 80.89 (3×) and 74.9 and 77.87
- Tumor volume ([5]; 50 mg/kg BID, treatment day 14): 95.03 and 87.03 and 102.07 (3×)
- Tumor volume ([5]; 50 mg/kg BID, treatment day 19): 105.09 and 109.21 and 122.74 and 135.08 (2×)
- Tumor volume ([5]; 50 mg/kg BID, treatment day 22): 186.96 and 181.98 and 192.42 and 159.66 and 197.96
- Tumor volume ([5]; 50 mg/kg BID, treatment day 25): 232.25 (2×) and 250.35 (2×) and 247.99
- Change in tumor volume (block without heading, Fig. 6b) ([5]; 100 mg/kg QD): 67.7861 and 60.2113 and 54.3275 and 44.2105 and 25.5424
- Tumor volume ([5]; 100 mg/kg QD, treatment day 0): 82.36 and 83.97 and 87.11 and 85.5 (2×)
- Tumor volume ([5]; 100 mg/kg QD, treatment day 4): 85.5 (2×) and 83.97 (2×) and 88.7
- Tumor volume ([5]; 100 mg/kg QD, treatment day 7): 82.36 and 72.18 and 79.42 and 77.87 and 79.29
- Tumor volume ([5]; 100 mg/kg QD, treatment day 11): 79.29 (2×) and 65.37 and 72.18 and 77.87
- Tumor volume ([5]; 100 mg/kg QD, treatment day 14): 114.83 and 111.18 and 83.83 (3×)
- Tumor volume ([5]; 100 mg/kg QD, treatment day 19): 131.95 (2×) and 140.89 and 109.36 and 123.3
- Tumor volume ([5]; 100 mg/kg QD, treatment day 22): 136.38 and 156.56 and 135.08 and 138.33 and 147.55
- Tumor volume ([5]; 100 mg/kg QD, treatment day 25): 213.8 and 205.8 and 189.86 and 177.9 and 205.88
